According to article PMC11578313, “Miniaturized Modular Click Chemistry‐enabled Rapid Discovery of Unique SARS‐CoV‐2 M^pro Inhibitors With Robust Potency and Drug‐like Profile” (Advanced Science, 2024):
Read-outs that look alike come from different tables or passages of the source.

Experiment: In vivo pharmacokinetic study in male ICR mice (compound alone)
Conditions: male, ICR, mouse, plasma
Experimental: The pharmacokinetics profile of the newly developed antiviral compound C5N17B was subsequently evaluated in male ICR mice that were free from specific pathogens, aiming to assess its potential for therapeutic application in vivo.
A total of six male ICR mice were randomly assigned to two groups. One group received the test drug intravenously at a dosage of 2 mg kg^−1, while the other group received oral administration at a dosage of 10 mg kg^−1. To prepare solutions of C5N17B, 2.39 mg compound was dissolved in a mixture of 0.119 mL DMSO, 0.238 mL polyoxyl 15 hydroxystearate (Solutol), and 2.027 mL normal saline. For the intravenous group, blood samples were collected from the sinus jugular into heparinized centrifugation tubes at various time points after dosing: 5, 15, 30 min, 1, 2, 4, 6, 8, and 24 h. As for the oral administration group, blood samples were collected at similar time points (0.05 mL of blood each time). The collected blood samples were then centrifuged at a speed of 4000 rpm for 10 min to separate plasma, which was subsequently stored at −20 °C until further LC‐MS analysis to determine the concentration of C5N17B. Briefly, the analysis involved adding 20 µL of plasma, sample calibration standard, quality control, and dilution quality control, and blank samples into respective wells on a 96‐well plate. Then each sample was quenched with 200 µL of internal standard (the blank sample was quenched with 200 µL of ACN: MeOH = 1:1), followed by vortex‐mixed for 5 min, and centrifuged for 0.5 min at 4000 rpm, 4 °C. Next, a 100 µL portion of supernatant was transferred to another clean 96‐well plate and diluted with 100 µL of water, vortex‐mixed for 5 min and centrifuged for 10 min at 4000 rpm, 4 °C, then the sample was injected for LC‐MS/MS analysis. All samples were quantified using an LC‐MS/MS‐AR Triple Quad 5500+ (SCIEX, USA) and the ExionLC liquid phase system. The mobile phase was 0.1% formic acid‐water/ACN with gradient elute at a flow rate of 0.8 mL mi^−1n (total time 2.20 min), and the detection wavelength was 225 nm. All blood samples were centrifuged using an Eppendorf 5424R centrifuge and quantified using an LC‐MS/MS‐AR Triple Quad 5500+ (SCIEX, USA). The pharmacokinetic parameters were calculated by WinNolin 8.2 software.

With `Cc1cncc(C(=O)N2C[C@H]3CC[C@@H](C2)N3[C@H](c2cccc(F)c2)c2cn(CCc3ccsc3)nn2)c1` [Compound C5N17B] the AUC (iv, 2 mg/kg, i.v. 2 mg kg^−1, male ICR mice, n = 3, read-out: AUC0‐∞, i.v.) was 65.9 ± 14.9 ng·h/mL, the clearance (iv, 2 mg/kg, i.v. 2 mg kg^−1, male ICR mice, n = 3, read-out: CL, i.v. (converted)) was 524 mL/min/kg and the Cmax (iv, 2 mg/kg, i.v. 2 mg kg^−1, male ICR mice, n = 3, read-out: Cmax, i.v.) was 237 ± 53.6 ng/mL. It also gave an MRT (iv, 2 mg/kg, i.v. 2 mg kg^−1, male ICR mice, n = 3, read-out: MRT0‐t, i.v.) of 5.81 ± 894 min, an MRT (iv, 2 mg/kg, i.v. 2 mg kg^−1, male ICR mice, n = 3, read-out: MRT0‐∞, i.v.) of 6.96 ± 0.391 min and a Tmax (iv, 2 mg/kg, i.v. 2 mg kg^−1, male ICR mice, n = 3, read-out: Tmax, i.v.) of 4.98 min. It also gave a half-life (iv, 2 mg/kg, i.v. 2 mg kg^−1, male ICR mice, n = 3, read-out: t1/2, i.v. (converted)) of 6.6 min, a bioavailability (oral, 10 mg kg^−1, p.o. 10 mg kg^−1 vs i.v. 2 mg kg^−1, male ICR mice, read-out: F (oral bioavailability)) of 13% and a concentration at 5 min (oral, 10 mg/kg, PO 10 mg/kg (10MPK), 5 min, mean of mice 4#-6#, read-out: Plasma concentration, Mean) of 40.6 ng/mL. The concentration at 15 min (oral, 10 mg/kg, PO 10 mg/kg (10MPK), 15 min, mouse plasma, individual mice 4-6, read-out: Plasma concentration (Calculated Concentration)) was 18 ng/mL, the concentration at 30 min (oral, 10 mg/kg, PO 10 mg/kg (10MPK), 30 min, sample marked "re", individual mouse, read-out: Plasma concentration (Calculated Concentration), re-analysis) was 4.52 ng/mL and the concentration at 1 hr (oral, 10 mg/kg, PO 10 mg/kg (10MPK), 1 hr, samples marked "re", individual mice, read-out: Plasma concentration (Calculated Concentration), re-analysis) was 7.4 ng/mL. For the same compound, the concentration at 2 hr (oral, 10 mg/kg, PO 10 mg/kg (10MPK), 2 hr, sample marked "re", individual mouse, read-out: Plasma concentration (Calculated Concentration), re-analysis) was 15.7 ng/mL, the concentration at 4 h (oral, 10 mg/kg, PO 10 mg/kg (10MPK), 4 hr, mouse plasma, individual mice 4-6, read-out: Plasma concentration (Calculated Concentration)) was 5.85 ng/mL and the concentration at 6 h (oral, 10 mg/kg, PO 10 mg/kg (10MPK), 6 hr, mouse plasma, individual mice 4-6, read-out: Plasma concentration (Calculated Concentration)) was 2.52 ng/mL. It also gave a Tmax (po, 10 mg/kg, PO 10 mg/kg (10MPK), individual mice 4#-6#, read-out: Tmax) of 5 min, a half-life (po, 10 mg/kg, PO 10 mg/kg (10MPK), mean of mice 4#-6#, read-out: T1/2, Mean (converted)) of 213 min and a Tmax (po, 10 mg/kg, PO 10 mg/kg (10MPK), mean of mice 4#-6#, read-out: Tmax, Mean) of 5 min. It also gave a concentration at 0.5 h (po, 10 mg/kg, PO 10 mg/kg, 0.50 h, mean of mice 4#-6#, read-out: plasma concentration, Mean) of 8.28 ng/mL, a concentration at 1 h (po, 10 mg/kg, PO 10 mg/kg, 1 h, mean of mice 4#-6#) of 7.2 ng/mL and a concentration at 2 h (po, 10 mg/kg, PO 10 mg/kg, 2 h, mean of mice 4#-6#) of 10.5 ng/mL. It also gave a concentration at 4 h (po, 10 mg/kg, PO 10 mg/kg, 4 h, individual mice 4#-6#, read-out: plasma concentration) of 5.85 ng/mL, a concentration at 4 h (po, 10 mg/kg, PO 10 mg/kg, 4 h, mean of mice 4#-6#, read-out: plasma concentration, Mean) of 5.98 ng/mL and a concentration at 6 h (po, 10 mg/kg, PO 10 mg/kg, 6 h, individual mice 4#-6#, read-out: plasma concentration) of 2.52 ng/mL. For the same compound, the concentration at 6 h (po, 10 mg/kg, PO 10 mg/kg, 6 h, mean (only 5# quantifiable), read-out: plasma concentration, Mean) was 2.52 ng/mL, the AUC(0-t) (po, 10 mg/kg, PO 10 mg/kg, individual mice 4#-6#, read-out: AUC0-t) was 30.4 ng·h/mL and the AUC(0-inf) (po, 10 mg/kg, PO 10 mg/kg, individual mice 4#-6#, read-out: AUC0-∞) was 59.6 ng·h/mL. It also gave a bioavailability (po, 10 mg/kg, PO 10 mg/kg, individual mice 4#-6#, read-out: F) of 9.56%, an MRT last (po, 10 mg/kg, PO 10 mg/kg, individual mice 4#-6#, read-out: MRT0-t) of 97.2 min and an AUC(0-inf) (po, 10 mg/kg, PO 10 mg/kg, individual mice 4-6, read-out: AUCINF_obs) of 59.6 ng·h/mL. The AUC(0-inf) (po, 10 mg/kg, PO 10 mg/kg, individual mice 4-6, read-out: AUCINF_pred) was 55 ng·h/mL, the AUC (po, 10 mg/kg, PO 10 mg/kg, individual mice 4-6, read-out: AUCall) was 30.4 ng·h/mL and the AUC(0-t) (po, 10 mg/kg, PO 10 mg/kg, individual mice 4-6, read-out: AUClast) was 30.4 ng·h/mL. For the same compound, the CL/F (po, 10 mg/kg, PO 10 mg/kg, individual mice 4-6, read-out: Cl_F_obs (converted)) was 2800 mL/min/kg, the MRT last (po, 10 mg/kg, PO 10 mg/kg, individual mice 4-6, read-out: MRTlast) was 97.3 min and the Tmax (po, 10 mg/kg, PO 10 mg/kg, individual mice 4-6, read-out: Tmax) was 5 min. It also gave an AUC(0-t) (po, 10 mg/kg, PO 10 mg/kg, mean of mice 4#-6#, read-out: AUC0-t, Mean) of 41.3 ng·h/mL, an AUC(0-inf) (po, 10 mg/kg, PO 10 mg/kg, mean of mice 4#-6#, read-out: AUC0-∞, Mean) of 71.9 ng·h/mL and a Cmax (po, 10 mg/kg, PO 10 mg/kg, mean of mice 4#-6#, read-out: Cmax, Mean) of 40.6 ng/mL. It also gave an MRT last (po, 10 mg/kg, PO 10 mg/kg, mean of mice 4#-6#, read-out: MRT0-t, Mean) of 107 min, an MRT inf (po, 10 mg/kg, PO 10 mg/kg, mean of mice 4#-6#, read-out: MRT0-∞, Mean) of 300 min and an AUC (po, 10 mg/kg, p.o. 10 mg kg^−1, male ICR mice, n = 3, read-out: AUC0‐t, p.o.) of 41.3 ± 9.5 ng·h/mL. The AUC (po, 10 mg/kg, p.o. 10 mg kg^−1, male ICR mice, n = 3, read-out: AUC0‐∞, p.o.) was 71.9 ± 26 ng·h/mL, the Cmax (po, 10 mg/kg, p.o. 10 mg kg^−1, male ICR mice, n = 3, read-out: Cmax, p.o.) was 40.6 ± 24.1 ng/mL and the MRT (po, 10 mg/kg, p.o. 10 mg kg^−1, male ICR mice, n = 3, read-out: MRT0‐t, p.o.) was 107 ± 8.7 min. The MRT (po, 10 mg/kg, p.o. 10 mg kg^−1, male ICR mice, n = 3, read-out: MRT0‐∞, p.o.) was 300 ± 108 min, the Tmax (po, 10 mg/kg, p.o. 10 mg kg^−1, male ICR mice, n = 3, read-out: Tmax, p.o.) was 4.8 min and the half-life (po, 10 mg/kg, p.o. 10 mg kg^−1, male ICR mice, n = 3, read-out: t1/2, p.o. (converted)) was 213 ± 72 min. The Cmax (po, 10 mg/kg, p.o. 10 mg kg^−1, male ICR mice, read-out: Cmax, p.o.) was 78.6 nM.
